From EP0478292A1, “Heterocyclic compounds” (THE WELLCOME FOUNDATION LIMITED, priority 1990, dated 1992)
Where two headings read alike, the source gives them in different places.

Target: T1, Purine nucleoside phosphorylase (PNPase) (Homo sapiens, UniProt P00491)
T1 construct: Purine nucleoside phosphorylase (PNPase) was purified from human erythrocytes; from tissue; host or cells: human erythrocytes
T1 sequence (P00491 1-289): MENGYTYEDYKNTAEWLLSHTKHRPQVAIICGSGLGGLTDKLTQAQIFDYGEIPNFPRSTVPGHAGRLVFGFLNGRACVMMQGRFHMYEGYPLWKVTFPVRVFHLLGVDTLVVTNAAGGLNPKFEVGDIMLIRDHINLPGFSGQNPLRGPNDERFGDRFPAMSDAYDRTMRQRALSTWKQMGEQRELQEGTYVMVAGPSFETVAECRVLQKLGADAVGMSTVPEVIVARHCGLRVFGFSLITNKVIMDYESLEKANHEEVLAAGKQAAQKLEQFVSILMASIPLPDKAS
Assay: Inhibition of purine nucleoside phosphorylase, spectrophotometric assay of inosine phosphorolysis coupled with xanthine oxidase
Format: biochemical
Method: Enzymology-Purine nucleoside phosphorylase (PNPase) was purified from human erythrocytes by the procedure of Agarwal et al (1). PNPase and xanthine oxidase were desalted before use (2). […] PNPase was assayed spectrophotometrically as previously described (2). In addition to PNPase, the reaction mixtures contained 0.1 mM inosine, 1 mM potassium phosphate, 100 mM Tris=HCl buffer (pH 7.5), 2µM ZnCl₂, and 0.2 U/ml of xanthine oxidase. […] The percent inhibition (%I) of PNP by a single concentration of inhibitor was measured (3).

[1] = apparent inhibition constant calculated from percent inhibition at a single inhibitor concentration assuming competitive inhibition, PNPase from human erythrocytes, 0.1 mM inosine, 1 mM potassium phosphate, pH 7.5, 2µM ZnCl₂, read-out: Ki

Compound	Ki [1]	Ki
Nc1nc(O)c2ncn(CCCCP(=O)(O)CP(=O)(O)O)c2n1 [Compound 2, (((4-(2-amino-1,6-dihydro-6-oxo-9H-purin-9-yl)butyl)phosphinico)methyl)phosphonic acid]	77 nM	–
Nc1nc(O)c2ncn(CCCCCCCP(=O)(O)CP(=O)(O)O)c2n1 [Compound 4, (((7-(2-amino-1,6-dihydro-6-oxo-9H-purin-9-yl)heptyl)phosphinico)methyl)phosphonic acid]	8.3 nM	–
CCOP(=O)(O)CP(=O)(O)CCCCCn1cnc2c(O)nc(N)nc21 [Compound 5, ethyl hydrogen (((5-(2-amino-1,6-dihydro-6-oxo-9H-purin-9-yl)pentyl)phosphinico)methyl)phosphonate]	–	870 nM
Nc1nc2c(ncn2CCCOCP(=O)(O)CP(=O)(O)O)c(=O)[nH]1 [Compound 6, ((((3-(2-amino-1,6-dihydro-6-oxo-9H-purine-9-yl)propoxy)methyl)phosphinico)methyl)phosphonic acid]	4.5 nM	–
